Measured values taken from patent US8629242B2, “Methods of inhibiting calcineurin with ApoE analogs” (Cognosci, Inc., priority 2007, dated 2014).
Read-outs that look alike come from different tables or passages of the source. Each block holds one compound with its values, some of them ahead of it. Where a SMILES comes first, the peptide text is derived from it. [ ]: non-standard residue; d: D form. Arg(NO2) = N=C(NCCC[C@H](N)C(=O)O)N[N+](=O)[O-]; Aib = CC(C)(N)C(=O)O

Key:
[1] = test system: PLP-induced relapsing-remitting experimental autoimmune encephalomyelitis (EAE) model; assay: PLP-induced relapsing-remitting EAE model; assay type: in vivo; parameters: CSmax during relapse (mean ± SEM) / Area under curve (mean ± SEM): scale not given here; details: 4 mg/kg s.c.
Protocol: To further compare the activity of the various ApoE analogs, the efficacy of the analogs was assessed in a PLP-induced relapsing-remitting experimental autoimmune encephalomyelitis (EAE) model. […] The second dose was administered the next day followed by three times a week (M, W, F). Relapse rate represents the number of animals experiencing a relapse, while the CSmax indicates the maximal clinical score during relapse. Area under curve represents the area under the curve in a plot of clinical score vs. days post-inoculation (out to 60 days). […] The improvement in relapse rate and clinical score in the EAE model by ApoE analog treatment may be due, in part, to the remyelination-promoting effect of the ApoE analogs.

Maximum tolerated dose = assay type: in vivo; details: in vivo
Text: To fully evaluate the use of ApoE analogs as therapeutic compounds, the margin of safety should also be determined. Towards that end, we determined the maximum tolerated dose of COG 112, COG 248, and COG 345 when administered by intravenous and subcutaneous injection.

Calcineurin = target: T1, Calcineurin (Homo sapiens, UniProt Q08209); assay: Cell-free calcineurin phosphatase activity assay (BioMol kit); assay type: biochemical; details: various concentrations
T1 construct: purchased BioMol AK-804
Protocol: FIG. 14. ApoE analogs bind directly to calcineurin and inhibit its activity. […] (B) Immunoprecipitation of human brain lysate with a biotin-COG 133 conjugate. Lane 1=markers; lane 2=clear bead; lane 3=biotin-COG 133 bead conjugate; and lane 4=10 μg lysate. (C) Immunoprecipitation of different glial cultures with a biotin-COG 133 conjugate. Lane 1=markers; lane 2=astrocyte; lane 3=microglia; and lane 4=oligodendrocyte precursor cells (OPC). Blots in B and C were probed for calcineurin (PP2B).
Calcineurin activity was measured in a cell-free in vitro assay in the presence of various concentrations of COG 133 (SEQ ID NO: 1), COG 112 (SEQ ID NO: 5), COG 68 (SEQ ID NO: 7), COG 125 (Ac-AS(Aib)LRKL(Aib)KR—COOH; SEQ ID NO: 8), or antennapedia (antp), the prefix peptide for COG 112. […] Using a BioMol Calcineurin Phosphatase Activity Kit (Cat. #AK-804), the assay was conducted according to manufacturer's instructions. […] This inhibition of calcineurin activity by ApoE analogs is mediated by a direct interaction of the ApoE analog with the phosphatase.

enriched OPC cultures = assay: Number of mature oligodendrocytes after differentiation of enriched OPC culture; assay type: cell-based, rat; details: 2 μM COG 133, 1 μM COG 112 or 1 μM COG 68 for four days, then six days differentiation without analog
Protocol: FIG. 11. ApoE analogs increase the number of mature oligodendrocytes in culture. ApoE analogs (COG 133, COG 112, and COG 68) were added to enriched OPC culture in proliferation media for four days. Cultures were then differentiated in the absence of the ApoE analogs. Cells were labeled with a GST-π antibody to detect mature oligodendrocytes.
Since COG 112 increased the proliferation of OPCs, we next examined whether the ApoE analogs could also increase the number of mature oligodendrocytes. Enriched OPC cultures were prepared as described for the previous experiment. 2 μM COG 133 (SEQ ID NO: 1), 1 μM COG 112 (SEQ ID NO: 5), or 1 μM COG 68 (Ac-[…]-NH2; SEQ ID NO: 7) were added to the enriched OPC cultures in proliferation media for four days. The media was then replaced with differentiation medium without the ApoE analogs for an additional six days. Cells were labeled with a GST-π antibody to detect mature oligodendrocytes.

microglia cell line BV2 = assay: LPS-induced NO and TNF-α release in BV2 microglia; assay type: cell-based, murine; details: LPS 10 ng/ml, 24 hours
Protocol: FIG. 16. […] Series concentrations of ApoE analogs were added to culture medium together with LPS (10 ng/ml). 24 hours later, culture medium was collected for measurement of NO by Griess assay or TNF-α by ELISA. […] ApoE analogs (10 μM) were added to the cell medium of human macrophage U937 5 minutes prior to PMA+LPS treatment. The release of superoxide in culture medium was measured by Luminol assay kit (Calbiochem).
The murine microglia cell line BV2 was used as the first screening platform to compare the potency of ApoE analogs in anti-inflammatory activity. In response to LPS, BV2 produces amounts of reactive radical NO and inflammatory cytokines, such as TNF-α and IL-6. We stimulated the cells with LPS (10 ng/ml) in the presence of several concentrations of each of the ApoE analogs. We measured NO in medium by Griess assay and TNF-α by ELISA 24 hours after LPS stimulation of the cells. The IC50 value was calculated for each of the ApoE analogs.

[2] = Anti-inflammatory properties in vitro or in vivo (general statement)
Text: The following ApoE analogs, COG 112, COG 1410, COG 241, COG 248, COG 68, and COG 345, have been identified as having improved properties as compared to the ApoE peptide, COG 133.

[3] = test system: oligodendrocyte precursor cells (OPC)/microglia mixed culture; assay: LPS-induced OPC cell death in OPC/microglia mixed culture; assay type: cell-based, rat; details: 1 μM, LPS 10 ng/ml, 24 hours
Protocol: FIG. 9. COG 112 protects OPCs from LPS-induced cell death in OPC/microglia mixed culture. LPS (final conc. 10 ng/ml) was added to an OPC/microglia mixed culture with or without 1 μM COG 112. The prefix peptide of COG 112, antennapedia, was used as a negative control. Cells were fixed with 4% formaldehyde and stained with the OPC marker, NG2, and counterstained with hoescht. (A) LPS-treated cultures; (B) LPS+antennapedia (Antp)-treated cultures; (C) LPS+COG 112-treated cultures; (D) Bar graph summarizing the number of NG2+ cells per field in each condition. ** p<0.01.
FIG. 19. COG 345 promotes remyelination in lysolecithin-induced demyelination model of cerebellum slices. Significant demyelination was induced by lysolecithin (0.5 mg/ml) in cerebellar slices. COG 112 or COG 345 (1 μM) was added on day 3 when full demyelination was achieved. 4 days later, the slices were fixed and double stained with myelin marker MBP (green) and Purkinje cell marker calbindin (red). (A) Untreated-slices; (B) lysolecithin-treated slices; (C) COG 112-treated slices after lysolecithin exposure; (D) COG 345-treated slices after lysolecithin exposure. E-F. ApoE analogs protect OPCs from LPS-induced cell death in OPC/microglia mixed culture. OPCs and microglia derived from brain culture of P2 rat pups were plated in 96-well plates in 1:1 ratio. LPS (10 ng/ml) together with 1 μM of the indicated ApoE analogs was added to the cultures. After 24 hours, OPC cell death was quantified by LDH assay (E) and MTT assay (F). Statistical analysis was conducted by one-way ANOVA followed by Dunnett comparison vs. LPS group. * P<0.01, ** P<0.001, n=3.
A primary culture prepared from the brains of P2 Sprague-Dawley rat pups was grown for seven days. Microglia and OPCs were shaken off from the primary culture with an orbital shaker at 150˜200 rpm. The OPCs and microglia were plated in 24-well plates at a 1:1 ratio with 5×10^4 cells per well of each cell type. After 24 hours, LPS (final conc. 10 ng/ml) was added with or without 1 μM COG 112. The prefix peptide of COG 112, antennapedia, was used as a negative control. After incubation for 72 hours, the medium was removed and cells were fixed with 4% formaldehyde and stained with the OPC marker, NG2, and counterstained with hoescht. Five fields from each of the wells were randomly chosen to count the number of NG2-positive cells.
To further assess the ability of the novel ApoE analogs to promote remyelination, the effect of the analogs on OPC survival was assessed in an OPC/microglia mixed culture. OPC and microglia derived from primary culture of P2 rat pup brain were plated on 96-well plates in 1:1 ratio. […] After 24 hours, cell death of OPC was quantified by both LDH and MTT assays.

Compound: acetyl-Aib-LRKL-Aib-(n acetyl K)RLL-amide (Ac-[Aib]LRKL[Aib]K(Ac)RLL-NH2; SMILES CC(=O)NCCCC[C@H](NC(=O)C(C)(C)NC(=O)[C@H](CC(C)C)NC(=O)[C@H](CCCCN)NC(=O)[C@H](CCCNC(=N)N)NC(=O)[C@H](CC(C)C)NC(=O)C(C)(C)NC(C)=O)C(=O)N[C@@H](CCCNC(=N)N)C(=O)N[C@@H](CC(C)C)C(=O)N[C@@H](CC(C)C)C(N)=O) [COG 241]
Area under curve (mean ± SEM) ([1]; clinical score vs days post-inoculation, out to 60 days): 13.5 ± 2.6
CSmax during relapse (mean ± SEM) ([1]; maximal clinical score during relapse): 2.3 ± 0.8
Relapse Rate ([1]; number of animals experiencing a relapse): 8/15

Compound: CC(=O)N[C@@H](CC(C)C)C(=O)N[C@@H](CCCNC(=N)N)C(=O)N[C@H](C(=O)N[C@@H](CCCNC(=N)N)C(=O)N[C@@H](CC(C)C)C(=O)N[C@@H](C)C(=O)N[C@@H](CO)C(=O)NC(C)(C)C(=O)N[C@@H](CC(C)C)C(=O)N[C@@H](CCCNC(=N)N)C(=O)N[C@@H](CCCCN)C(=O)N[C@@H](CC(C)C)C(=O)N[C@@H](CCCNC(=N)N)C(=O)N[C@@H](CCCCN)C(=O)N[C@@H](CCCNC(=N)N[N+](=O)[O-])C(=O)N[C@@H](CC(C)C)C(=O)N[C@@H](CC(C)C)C(N)=O)C(C)C [COG 248, acetyl-LRVRLAS-Aib-LRKLRK(nitro-Arg)LL-amide] (Ac-LRVRLAS[Aib]LRKLRK[Arg(NO2)]LL-NH2)
MTD (Maximum tolerated dose; sc, subcutaneous injection, read-out: Maximum Tolerated Dose Subcutaneous): > 150 mg/kg
MTD (Maximum tolerated dose; intravenous injection, read-out: Maximum Tolerated Dose Intravenous): 25 mg/kg

inhibition of calcineurin activity (Calcineurin): dose-dependent inhibition
Compound: acetyl-RRLSYSRRRFLRVRLASHLRKLRKRLL-amide (Ac-RRLSYSRRRFLRVRLASHLRKLRKRLL-NH2) [COG 68, ApoE peptide linked to the protein transduction domain SynB3]
number of mature oligodendrocytes (GST-π) (enriched OPC cultures): significantly increased the number of mature oligodendrocytes
activity in suppression of microglia activation (NO by Griess assay, TNF-α by ELISA) (microglia cell line BV2): clearly superior to that of COG 133

Compound: acetyl-AS-Aib-LRKL-Aib-KRLL-amide [COG 1410]
activity in suppression of microglia activation (NO by Griess assay, TNF-α by ELISA) (microglia cell line BV2): clearly superior to that of COG 133

inhibition of calcineurin activity (Calcineurin): Inactive
Compound: acetyl-AS-Aib-LRKL-Aib-KR-amide (Ac-AS[Aib]LRKL[Aib]KR-NH2; SMILES CC(=O)N[C@@H](C)C(=O)N[C@@H](CO)C(=O)NC(C)(C)C(=O)N[C@@H](CC(C)C)C(=O)N[C@@H](CCCNC(=N)N)C(=O)N[C@@H](CCCCN)C(=O)N[C@@H](CC(C)C)C(=O)NC(C)(C)C(=O)N[C@@H](CCCCN)C(=O)N[C@@H](CCCNC(=N)N)C(N)=O) [COG 125, reference compound]
anti-inflammatory properties [2]: did not exhibit any anti-inflammatory properties

Compound: CCCCCCCCc1ccc(CCC(N)(CO)CO)cc1 [FTY720, reference compound]
OPC cell death by LDH and MTT assays [3]: did not show a clear protective effect
